Assay results reported in patent publication US20220265845A1, “AMINOTHIOLESTER COMPOUNDS AND USES THEREOF” (ADVANCED BIODESIGN, priority 2019, published 2022).

How the values were obtained:
[1] = target: T1, Human recombinant ALDH3A1 (Homo sapiens, UniProt P30838); experiment: Enzymatic assay with human recombinant ALDH3A1 (NADP+, 4-NBA), IC50; assay type: biochemical; conditions: substrate 4-Nitrobenzaldehyde, 37° C.
T1 sequence (P30838 1-453): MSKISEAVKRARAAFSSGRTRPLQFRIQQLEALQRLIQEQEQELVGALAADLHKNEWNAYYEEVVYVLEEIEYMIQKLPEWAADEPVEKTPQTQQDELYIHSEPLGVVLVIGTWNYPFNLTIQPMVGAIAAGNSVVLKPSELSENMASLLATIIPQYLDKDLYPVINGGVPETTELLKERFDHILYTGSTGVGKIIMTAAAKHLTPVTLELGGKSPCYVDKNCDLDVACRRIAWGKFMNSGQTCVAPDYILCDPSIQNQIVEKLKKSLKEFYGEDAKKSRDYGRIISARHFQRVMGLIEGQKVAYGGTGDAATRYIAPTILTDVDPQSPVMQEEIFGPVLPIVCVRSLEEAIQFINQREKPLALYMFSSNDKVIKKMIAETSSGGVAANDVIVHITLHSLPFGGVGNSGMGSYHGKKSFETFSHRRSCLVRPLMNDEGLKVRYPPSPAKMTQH
Method: For ALDH3A1 (1 mg/mL), 10 μL of enzyme was added into a reaction buffer containing 50 mM Tris, 5 mM DTT, pH 8, plus 40 mM Nicotinamide adenine dinucleotide phosphate (oxidized form, NADP^+) and 4-Nitrobenzaldehyde (4-NBA) (Sigma-.Aldrich). Internal standards were prepared with Nicotinamide adenine dinucleotide phosphate reduced form (NADPH, 5 μM, Sigma-Aldrich) in Reaction Buffer (50 mM Tris, 5 mM DTT, pH 8).
(§1) Time-dependent inhibition assays were performed for 0-2-5-10-15-20-30-45-60 min at 37° C. in 1 mL-quartz cuvette. The formation of NADH was monitored, reading samples at excitation wavelength=340 nm/emission wavelength=460 nm (fluorescence) for at least 600 sec using Cary Eclipse Varian fluorimeter.
Negative control consisted in the same reactions except that enzyme was not added (enzyme blank). To determine the slope for enzyme blank and calculate product concentration (Unit of fluorescence) the following formulae was used: […]
where Cst is the standard NADH concentration, Fst is the standard fluorescence and dF/dt is the slope of the time dependent fluorescence (S. Sotobodowska et al, 2012). The specific activity of the enzymes (μmol/min·mg-U/mg) in the absence of presence of inhibitors was calculated as follows: […]

HL-60 = experiment: Cell viability assay (Resazurin), cytotoxicity in HL60 cells; assay type: cell-based; conditions: Homo sapiens, HL-60, read-out: IC50 at 48 h, 48 hours of incubation
Method: Cell lines. Leukemic cell line, HL-60 (derived from a person with AML-M2), was used for determination of drug efficacy. Cells were obtained from the European Collection of Cell Cultures (ECACC). All cells were cultivated in appropriate media according to supplier recommendations.
Cell Viability assay, 96-well format. Cells were seeded into 96-well cell culture plates at concentrations required to ensure approximately 80% confluence in control (untreated cells) at the end of experiment (0.5×10^4-5×10^4 cell/well).
The sensitivity towards compounds according to the invention was determined using different concentrations of each compound ranging from 0.5 to 100 μM (0.5, 1, 2, 5, 10, 15, 20, 25, 30, 40, 50, 100 μM). Following 48 hours of incubation at 37° C. in a humidified atmosphere containing 5% CO2, the growth-inhibitory effect of compounds was analyzed using Resazurin, according to manufactures instructions.
To ensure good data quality and to minimize impact of pipetting errors, each compounds concentration was assessed based on mean fluorescence intensity from 8 separate wells. Compounds response were quantified by the half maximal inhibitory concentration (IC50) for each particular cell line, and determined by non-linear regression analysis of log-dose/response curves.
Statistical Analysis. Values were expressed as mean±SD or frequencies and proportions. Cell viability curves were determined using four parameter regression line. Differences between groups were determined by unpaired t test, Chi-square, Fisher's exact test or ANOVA, where appropriate. P<0.05 was considered statistically significant. Analysis was performed using GraphPad prism version 5.0 (GraphPad software, San Diego Calif. USA).

[2] = system: ALDH class 1 recombinant enzymes; experiment: Comparison with DIMATE on ALDH class 1 recombinant enzymes; assay type: biochemical, human; conditions: from IC50 of Table 4
Method: Human recombinant ALDH1A1, ALDH1 A2, ALDH1A3, ALDH2 (Creative BioMart, NY, USA) were prepared at 1 mg/mL. The enzymatic reactions were performed using saturating concentrations of substrate. To test the enzymatic activity of the enzymes, 10 μL of enzyme was added into a reaction buffer containing 50 mM HEPES pH 7.2, 30 mM MgCl2, plus 20 mM NAD^+ cofactor and 2 mM Hexanal (Sigma-Aldrich, St. Louis, Mo., USA) in the presence or absence of the different tested compounds. Internal standards were prepared with Nicotinamide adenine dinucleotide reduce form (NADH, 500 μM, Sigma-Aldrich) in Reaction Buffer (50 mM HEPES pH 7.2, 30 mM MgCl2).
as §1
The kinetic data are expressed as the mean±standard error from three independent determination. Kinact/Ki was determined from Kobs versus concentration of the inhibitor [I] plots. […] The Kobs were obtained from negative exponential fit using non-linear regression program GraFit 5.0 (Erithacus software).

SMILES | IC50 [1] | IC50 (HL-60) | Inhibition of the ALDH class 1 enzymes compared with DIMATE [2]
CSC(=O)C#CC(C)(C)N(C)CCOCc1ccccc1 [Example 3, S-methyl 4-[2-benzyloxyethyl(methyl)amino]-4-methyl-pent-2-ynethioate] | 242 ± 11 µM | 1.17 µM | higher inhibition
CSC(=O)C#CC(C)(C)N(C)C [DIMATE, S-methyl 4-(dimethylamino)-4-methylpent-2-ynethioate, reference compound] | 303 ± 46 µM | – | –
CSC(=O)C#CC(C)(C)N(C)CCOCc1ccc(C)c(C)c1 [Example 5, S-methyl 4-[2-[(3,4-dimethylphenyl)methoxy]ethyl-methyl-amino]-4-methyl-pent-2-ynethioate] | 143 ± 2 µM | 4.72 µM | higher inhibition
